Where two headings read alike, the source gives them in different places. No end group written: not given here.
Experiments:
PAC1R = target: T1, PAC1R (Homo sapiens, UniProt P41586); assay: cAMP accumulation, chimeric peptides (Fig. 5b); type: cell-based; settings: COS-7, three-parameter logistic, read-out: pEC50, PAC1R cAMP (converted)
T1 construct: An HA signal peptide was inserted in place of the native signal peptide of the receptors; HA signal peptide (replaces the native signal peptide) (N); 3C protease cleavage sites (between FLAG and receptor, and between receptor and His) (internal); expressed in transfected cells; host or cells: COS-7 (transient, PEI)
T1 sequence (P41586 21-468): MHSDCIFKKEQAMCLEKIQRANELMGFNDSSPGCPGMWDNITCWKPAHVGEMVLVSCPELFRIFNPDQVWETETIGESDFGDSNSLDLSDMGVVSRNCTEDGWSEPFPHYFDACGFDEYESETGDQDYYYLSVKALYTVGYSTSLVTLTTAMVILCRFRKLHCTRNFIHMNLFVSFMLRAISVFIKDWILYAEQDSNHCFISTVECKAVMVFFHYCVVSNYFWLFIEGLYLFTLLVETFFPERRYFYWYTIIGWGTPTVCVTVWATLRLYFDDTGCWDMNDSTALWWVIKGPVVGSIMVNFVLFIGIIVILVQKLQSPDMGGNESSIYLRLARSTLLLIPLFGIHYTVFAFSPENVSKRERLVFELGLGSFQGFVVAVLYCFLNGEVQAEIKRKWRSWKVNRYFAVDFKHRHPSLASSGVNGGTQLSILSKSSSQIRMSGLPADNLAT
Description: (§1) An HA signal peptide was inserted in place of the native signal peptide of the receptors and a FLAG epitope was incorporated into the receptor N-terminus immediately after the signal peptide. A His tag was fused to C-terminus of the receptor. 3C protease cleavage sites were inserted between both the FLAG and His tags and the receptor. […] The following PAC1R and VPAC1R mutants were also generated using Quikchange mutagenesis: PAC1R C25A, PAC1R C219A, PAC1R C25A/C219A, VPAC1R C37A and VPAC1R C208A. For all PAC1R constructs, we used the PAC1R null (PAC1n) splice variant. A construct containing N-terminal NLuc immediately after the native signal peptide of PAC1R was also generated in pcDNA3.1.
COS-7 cells were used for the chimeric peptide and cysteine mutagenesis pharmacological assays due to their lack of endogenous expression of PAC1R and receptor activity-modifying proteins, reported to potentially heterodimerize with PAC1R and VPAC1R[42]. Cells were cultured in Dulbecco’s Modified Eagle’s Medium (DMEM) (Invitrogen) supplemented with 5% v/v heat-inactivated FBS at 37 °C and […] /5% CO2 in a humidified incubator. COS-7 cells were plated in 10 cm dishes at approximately 1 million cells/dish. Cells were transfected 24 h later, with 5 µg of either WT or mutant PAC1R or VPAC1R receptor DNA. DNA and PEI (in a 1:6 ratio) were each diluted in 150 mM NaCl, and then combined and incubated for 10 min, before the mixture was added to the 10 cm dish. The next day, cells were harvested from the 10 cm dishes using Trypsin-Versene (PBS + 0.5 mM EDTA, pH 7.4), and were seeded at a density of 15,000 cells/well into clear 96-well culture plates and incubated overnight at 37 °C in 5% CO2 for cAMP accumulation assay the next day.
The reaction was terminated after 30 min by aspiration of the buffer and addition of 50 μl of ice-cold ethanol. Upon evaporation of ethanol, 75 μl of lysis buffer (5 mM HEPES, 0.1% (w/v) OVA, 0.3% (w/v) Tween20, pH 7.4) was added to the cells. cAMP detection was performed using a LANCE cAMP Detection Kit (PerkinElmer) for the construct validation and cysteine mutagenesis pharmacological assays and cAMP Gs HiRange kit (Cisbio) for the chimeric peptide pharmacological assays. The plates were read using an EnVision plate reader with excitation at 320 nm and emission at 615 nm[45].
(§2) The pharmacological data in figures and tables are reported as mean + standard error of the mean (SEM) with the number of biological replicates indicated in the figure and table legends where “n” represents the number of biological replicates performed. Concentration-response data were analyzed in GraphPad Prism version 9.4.0 using a three-parameter logistic curve to derive pEC50 values for the cyclic AMP accumulation. Competition binding data were analyzed in GraphPad Prism using the one site—Fit log IC50 model to derive pIC50 values. For the cysteine mutagenesis data, comparisons of multiple different groups were performed using one-way analysis of variance (ANOVA), followed by Dunnett’s post-hoc test with the control group being the WT receptor, with significance accepted at p < 0.05. For the chimeric peptide data, comparisons of multiple different groups were performed using one-way ANOVA, followed by Tukey’s post-hoc test, with significance accepted at p < 0.05.

Nluc-PAC1R = target: T2, Nluc-PAC1R (Homo sapiens, UniProt P41586); assay: NanoBRET competition binding, AF568-PACAP27 probe (Fig. 5c); settings: COS-7, 30 nM AF568-PACAP27, 4 °C, read-out: pIC50, PAC1R competition binding (converted)
T2 construct: A construct containing N-terminal NLuc immediately after the native signal peptide of PAC1R was also generated in pcDNA3.1; expressed in transfected cells; host or cells: COS-7 (transient, PEI; whole cells at 4 °C)
T2 sequence (P41586 21-468): T1 sequence (P41586 21-468)
Description: as §1
Therefore, the lysine residue at position 21 was replaced with a cysteine residue (^21C) for the facile conjugation of fluorophore via thiol-maleimide click reaction. The resulting target peptide ^21C-PACAP27 (Mutant fragment) with amidated C-terminus was synthesized by standard Fmoc-solid phase peptide synthesis method[43] and purified by Reversed-phase high-performance liquid chromatography (RP-HPLC). […] of Alexa Fluor™ 568F was purchased from ThermoFisher Scientific (Catalog number: A20003). The thiol-maleimide conjugation reaction was carried out by our published protocol. […] The molecular weight of the probe was confirmed by Matrix-Assisted Laser Desorption/Ionization Time-of-Flight Mass Spectrometry (MALDI-TOF MS).
COS-7 cells were plated in 10 cm dishes at approximately 1 million cells/dish. Cells were transfected 24 h later, using 3 μg of Nluc-PAC1R DNA using the method described above and then seeded at a density of 15,000 cells per well in white-bottom 96-well culturplates 24 h prior to assay. On the day of the assay, cell culture media was replaced with BRET buffer (0.1% ovalbumin, 10 mM HEPES, 1x HBSS, pH 7.45) and incubated at 4 °C for two hours. […] After 1.5 h, furimazine (10 μM final concentration) was added to each well and the plate incubated for a further 30 min in the dark at 4 °C before reading. Filtered light emissions were measured at 460±40 nm (donor channel) and at 610-LP nm (long pass) (acceptor channel) using a PHERAstar plate reader (BMG Labtech). The raw NanoBRET ratio was calculated by dividing the luminescence from the acceptor channel by the donor channel. Data were expressed as % AF568-PACAP27 BRET signal in the absence of competing ligand.
as §2

Row | Molecule | EC50 (PAC1R; replicate n=1) | EC50 (PAC1R; replicate n=2) | EC50 (PAC1R; replicate n=3) | EC50 (PAC1R; replicate n=4) | EC50 (PAC1R; replicate n=5) | IC50 (Nluc-PAC1R; replicate n=1) | IC50 (Nluc-PAC1R; replicate n=2) | IC50 (Nluc-PAC1R; replicate n=3) | IC50 (Nluc-PAC1R; replicate n=4) | IC50 (Nluc-PAC1R; replicate n=5)
1 | CC[C@H](C)[C@H](NC(=O)[C@H](C)NC(=O)[C@H](CC(=O)O)NC(=O)[C@H](CO)NC(=O)[C@@H](N)Cc1cnc[nH]1)C(=O)N[C@@H](Cc1ccccc1)C(=O)N[C@H](C(=O)N[C@@H](CC(=O)O)C(=O)N[C@@H](CO)C(=O)N[C@@H](Cc1ccc(O)cc1)C(=O)N[C@@H](CO)C(=O)N[C@@H](CCCNC(=N)N)C(=O)N[C@@H](Cc1ccc(O)cc1)C(=O)N[C@@H](CCCNC(=N)N)C(=O)N[C@@H](CCCCN)C(=O)N[C@@H](CCC(N)=O)C(=O)N[C@@H](CCSC)C(=O)N[C@@H](C)C(=O)N[C@H](C(=O)N[C@@H](CCCCN)C(=O)N[C@@H](CCCCN)C(=O)N[C@@H](Cc1ccc(O)cc1)C(=O)N[C@@H](CC(C)C)C(=O)N[C@@H](C)C(=O)N[C@@H](C)C(=O)N[C@H](C(=O)N[C@@H](CC(C)C)C(N)=O)C(C)C)C(C)C)[C@@H](C)O [Ala4 PACAP27] | 3.48 nM | 1.67 nM | 2.05 nM | 8.65 nM | 3.32 nM | 695 nM | 1970 nM | 546 nM | 918 nM | 2860 nM
2 | HSDGVFTDNYTRLRKQMAVKKYLNSILN-NH2 [Gly4 VIP] | 28.7 nM | 12 nM | 12.6 nM | 23.6 nM | 7.96 nM | 7550 nM | 5500 nM | 7110 nM | 3400 nM | 1140 nM

— PMC9668914, “Understanding VPAC receptor family peptide binding and selectivity” (Nature Communications, 2022)
